#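 How tested: cells in 96-well plates exposed to compound for 48 hours at five concentrations. TGI is the concentration that stops growth completely.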
# Experiments:
# Test in all cases: growth of human tumour cells (NCI), 48 h
# [1] = test system: 786-0 renal
# [2] = test system: A498 renal
# [3] = test system: ACHN renal
# [4] = test system: CAKI-1 renal
# [5] = test system: CCRF-CEM leukemia
# [6] = test system: DU-145 prostate
# [7] = test system: EKVX NSCLC
# [8] = test system: HCC-2998 colon
# [9] = test system: HCT-116 colon
# [10] = test system: HCT-15 colon
# [11] = test system: HL-60(TB) leukemia
# [12] = test system: HOP-62 NSCLC
# [13] = test system: HOP-92 NSCLC
# [14] = test system: HS 578T breast
# [15] = test system: HT29 colon
# [16] = test system: IGROV1 ovarian
# [17] = test system: K-562 leukemia
# [18] = test system: KM12 colon
# [19] = test system: LOX IMVI melanoma
# [20] = test system: M14 melanoma
# [21] = test system: MCF7 breast
# [22] = test system: MDA-MB-231 breast
# [23] = test system: MDA-MB-435
# [24] = test system: MDA-N
# [25] = test system: MOLT-4 leukemia
# [26] = test system: NCI-H226 lung
# [27] = test system: NCI-H23 lung
# [28] = test system: NCI-H460 lung
# [29] = test system: NCI-H522 lung
# [30] = test system: NCI/ADR-RES ovarian
# [31] = test system: OVCAR-3 ovarian
# [32] = test system: OVCAR-4 ovarian
# [33] = test system: OVCAR-5 ovarian
# [34] = test system: OVCAR-8 ovarian
# [35] = test system: PC-3 prostate
# [36] = test system: RPMI-8226 leukemia
# [37] = test system: RXF 393 renal
# [38] = test system: SF-268 CNS
# [39] = test system: SF-295 CNS
# [40] = test system: SF-539 CNS
# [41] = test system: SK-MEL-2 melanoma
# [42] = test system: SK-MEL-28 melanoma
# [43] = test system: SK-MEL-5 melanoma
# [44] = test system: SK-OV-3 ovarian
# [45] = test system: SNB-75 CNS
# [46] = test system: SR leukemia
# [47] = test system: SW-620 colon
# [48] = test system: T-47D breast
# [49] = test system: TK-10 renal
# [50] = test system: U251 CNS
# [51] = test system: UACC-257 melanoma
# [52] = test system: UO-31 renal
# [53] = test system: A549 NSCLC
# [54] = test system: BT-549 breast
# [55] = test system: COLO 205 colon
# [56] = test system: MALME-3M melanoma
# [57] = test system: SN12C renal
# [58] = test system: UACC-62 melanoma
compound,measurement,setting,value
CC1=NN(c2cccc(Cl)c2)C(=N/c2nc3ccccc3s2)/C1=C\c1cccs1,TGI,[1],> 100 µM
same,TGI,[2],82.5 µM
same,TGI,[3],> 100 µM
same,TGI,[4],> 100 µM
same,TGI,[5],47.1 µM
same,TGI,[6],> 100 µM
same,TGI,[7],> 100 µM
same,TGI,[8],> 100 µM
same,TGI,[9],> 100 µM
same,TGI,[10],> 100 µM
same,TGI,[11],30.6 µM
same,TGI,[12],> 100 µM
same,TGI,[13],> 100 µM
same,TGI,[14],73 µM
same,TGI,[15],> 100 µM
same,TGI,[16],> 100 µM
same,TGI,[17],93.4 µM
same,TGI,[18],> 100 µM
same,TGI,[19],> 100 µM
same,TGI,[20],> 100 µM
same,TGI,[21],> 100 µM
same,TGI,[22],> 100 µM
same,TGI,[23],> 100 µM
same,TGI,[24],> 100 µM
same,TGI,[25],95.2 µM
same,TGI,[26],> 100 µM
same,TGI,[27],61.8 µM
same,TGI,[28],> 100 µM
same,TGI,[29],93.8 µM
same,TGI,[30],56.5 µM
same,TGI,[31],45.5 µM
same,TGI,[32],> 100 µM
same,TGI,[33],> 100 µM
same,TGI,[34],> 100 µM
same,TGI,[35],> 100 µM
same,TGI,[36],32.5 µM
same,TGI,[37],> 100 µM
same,TGI,[38],> 100 µM
same,TGI,[39],> 100 µM
same,TGI,[40],> 100 µM
same,TGI,[41],65.4 µM
same,TGI,[42],> 100 µM
same,TGI,[43],> 100 µM
same,TGI,[44],> 100 µM
same,TGI,[45],> 100 µM
same,TGI,[46],64.8 µM
same,TGI,[47],> 100 µM
same,TGI,[48],> 100 µM
same,TGI,[49],> 100 µM
same,TGI,[50],60.2 µM
same,TGI,[51],> 100 µM
same,TGI,[52],> 100 µM
O=C1C2=Cc3ccccc3OC2(O)Oc2ccc(O)cc21 (stereo not drawn),TGI,[1],> 100 µM
same,TGI,[2],> 100 µM
same,TGI,[53],> 100 µM
same,TGI,[3],29.6 µM
same,TGI,[54],> 100 µM
same,TGI,[4],> 100 µM
same,TGI,[5],44.4 µM
same,TGI,[55],> 100 µM
same,TGI,[6],> 100 µM
same,TGI,[7],> 100 µM
same,TGI,[8],> 100 µM
same,TGI,[9],> 100 µM
same,TGI,[10],> 100 µM
same,TGI,[12],> 100 µM
same,TGI,[13],> 100 µM
same,TGI,[15],> 100 µM
same,TGI,[16],> 100 µM
same,TGI,[17],74.1 µM
same,TGI,[18],> 100 µM
same,TGI,[19],> 100 µM
same,TGI,[20],> 100 µM
same,TGI,[56],> 100 µM
same,TGI,[21],> 100 µM
same,TGI,[22],> 100 µM
same,TGI,[23],> 100 µM
same,TGI,[24],> 100 µM
same,TGI,[25],> 100 µM
same,TGI,[26],> 100 µM
same,TGI,[27],> 100 µM
same,TGI,[30],> 100 µM
same,TGI,[31],> 100 µM
same,TGI,[33],> 100 µM
same,TGI,[34],> 100 µM
same,TGI,[35],> 100 µM
same,TGI,[36],> 100 µM
same,TGI,[37],> 100 µM
same,TGI,[38],> 100 µM
same,TGI,[39],> 100 µM
same,TGI,[40],> 100 µM
same,TGI,[41],> 100 µM
same,TGI,[42],> 100 µM
same,TGI,[43],> 100 µM
same,TGI,[44],> 100 µM
same,TGI,[57],> 100 µM
same,TGI,[45],> 100 µM
same,TGI,[47],> 100 µM
same,TGI,[48],> 100 µM
same,TGI,[49],> 100 µM
same,TGI,[50],> 100 µM
same,TGI,[51],> 100 µM
same,TGI,[58],> 100 µM
